In US20020065326A1, “Patient oxygenation using stabilized fluorocarbon emulsions” (priority 1992, published 2002):
Like-named read-outs stand apart in the source and are kept apart here. Marks after values point to notes of the source that are not given here.

Experiments:
[1] = Critical solution temperature (CST) versus hexane; format: physicochemical
Procedure: Critical solution temperature for fluorocarbon liquids was measured in the following manner: Equivolume mixtures of the test fluorocarbon and hydrocarbon (e.g., hexane) are placed in a sealed vial and submerged in a temperature controlled water bath. Samples are cooled until two distinct phases are present. At this point, the temperature is increased slowly. The lowest temperature at which the two phases are completely miscible (i.e., a single liquid phase) is defined as the CST.
For comparison purposes, all CST temperatures used in this patent are reported versus hexane. It is often not possible, however, to measure the CST for lipophilic fluorocarbons versus hexane, since the CSTs for these substances are very low. Thus, the CST for lipophilic substances is often measured in longer chain length hydrocarbons, and the value versus hexane is determined via extrapolation of linear plots of CST vs. alkane chain length.

in vivo = test: in vivo
Text: Traditionally, the molecular weight region from 460-550 g/mol has been considered optimal for blood substitute applications. The lower cutoff is related to the formation of gas emboli for fluorocarbons with vapor pressures greater than 20 torr. The upper cutoff is limited to compounds with organ retention times of less than 3 weeks.
The lower limit is defined by fluorocarbons with vapor pressures greater than 20 torr which causes gas emboli, while the upper limit is defined by fluorocarbons with organ retention times of less than 3 weeks.

[2] = critical solution temperature vs hexane; prior art minor components discussed in literature; cited from earlier work
[3] = cited from earlier work; for t½: organ retention half life, prior art / nonlipophilic fluorocarbons from literature
[4] = vs hexane, estimated from extrapolations of linear plots of CST vs. hydrocarbon chain length

Row | Compound | CSTH [2] | t½ [3] | also measured
1 | FC1(F)C(F)(F)C(F)(F)C2(F)C(F)(F)C(F)(F)C(F)(F)C(F)(F)C2(F)C1(F)F (stereo not drawn) [F-decalin, perfluorodecalin] | – | – | CSTH ([1]; critical solution temperature vs hexane, Present Study): 22 C; half-life (in vivo; t½): 7 days
2 | FC(F)(F)C(F)(F)C(F)(F)C(F)(F)C(F)(F)C(F)(F)C(F)(F)C(F)(F)C(F)(F)C(F)(F)Br [F-decyl bromide, perfluorodecyl bromide] | – | – | critical solution temperature compared with prior art stabilizers (in words) ([1]; vs hexane, at comparable molecular weight): dramatically lower; CSTH [1, 4]: (19)^a C; organ half-life versus prescribed cutoff (in vivo): less than 3 week; organ retention time compared with that predicted from the molecular weight (in vivo): less than be predicted from the molecular weight; t½ (calculated half life in vivo in organs of the RES) (in vivo): (18) days; half-life (in vivo; t½ (calculated half life in vivo in organs of the RES)): ~18 days
3 | FC1(F)OC(F)(F)C(F)(F)N(C(F)(F)C(F)(F)N2C(F)(F)C(F)(F)OC(F)(F)C2(F)F)C1(F)F [F-dimorpholinoethane] | 38 C | 24 days | –
4 | FC1(F)OC(F)(F)C(F)(F)N(C(F)(F)C(F)(F)C(F)(F)C(F)(F)C(F)(F)N2C(F)(F)C(F)(F)OC(F)(F)C2(F)F)C1(F)F [F-dimorpholinopentane] | 60 C | 280 days | –
5 | FC1(F)OC(F)(F)C(F)(F)N(C(F)(F)C(F)(F)C(F)(F)N2C(F)(F)C(F)(F)OC(F)(F)C2(F)F)C1(F)F [F-dimorpholinopropane] | 45 C | 50 days | –
6 | FC(F)(F)C(F)(F)C(F)(F)C(F)(F)C(F)(F)C(F)(F)Br [F-hexyl bromide, 1-bromotridecafluorohexane] | – | – | half-life (in vivo; in vivo): 2 days
7 | FC(F)(F)C(F)(F)C(F)(F)C(F)(F)C(F)(F)C(F)(F)C(F)(F)C(F)(F)Br [F-octyl bromide, perfluorooctyl bromide] | – | – | CSTH [1, 4]: (−19)^a C; organ retention time compared with that predicted from the molecular weight (in vivo): less than be predicted from the molecular weight; half-life (in vivo; t½): 4 days; ratio of half-lives for PFOB/FDC ([3]; used to scale FIG. 6 values): 4/7
8 | FC1(F)C(F)(F)C(F)(F)C2(F)C(F)(C1(F)F)C(F)(F)C(F)(F)C1(F)C(F)(F)C(F)(F)C(F)(F)C(F)(F)C12F (stereo not drawn) [F-perhydrophenanthrene] | 48 C | – | –
9 | FC1(F)OC(F)(F)C(F)(F)N(C2(F)C(F)(F)C(F)(F)C(F)(F)C(F)(F)C2(F)F)C1(F)F [F—N-cyclohexylmorpholine] | 31 C | 13 days | –
10 | F-dip;peridinopropane | 56 C | 282 days | –
11 | F-dipipendine | 36 C | – | –
12 | F-dipiperidinobutane | 72 C | 1460 days | –
13 | F-dipiperidinoethane | 49 C | 124 days | –
14 | F-dipiperidinomethane | 42 C | 55 days | –
15 | F—N-methylcyclohexylpiperidine | 40 C | 60 days | –
